Consider two compounds from article PMC12703938, “Positive modulation of sigma-1 receptor: a new weapon to mitigate disease progression in amyotrophic lateral sclerosis” (Translational Neurodegeneration, 2025).

This assay deals with T1, sigma-1 receptor (S1R).
T1 construct: gene SIGMAR1; S1R-GFP expressed in CHO cells; with BiP
The assay is described as follows: S1R/BiP dissociation assay in S1R-GFP CHO cells (GFP-Trap, BiP ELISA). In kind it is cell-based. A general note: In an ELISA, binding on a coated surface is turned into a signal by an enzyme label.

Where a name gives a salt, the structure may show the parent alone.

As to `C[C@]12CC[C@H](O)CC1=CC[C@@H]1[C@@H]2CC[C@]2(C)C(=O)CC[C@@H]12` [DHEA], 1.17 µM corresponded to half-maximal inhibition (IC50).

`O=C(OCCN1CCOCC1)C1(c2ccccc2)CCCCC1` [PRE-084, 2-(4-Morpholinethyl)-1-phenylcyclohexanecarboxylate hydrochloride]: the IC50 (as a rule, the concentration at which inhibition is half-maximal) was […].
